Assay results reported in patent publication US20250235499A1, “ANTI-OVARIAN CANCER PHARMACEUTICAL COMPOSITION AND ACTION TARGET THEREOF” (Zhejiang Chinese Medical University, priority 2024, published 2025).

What was measured:
[1] = system: MCM2, CDK4, Cyclin D1, P21; assay: Western Blot of tumor body cyclin in tumor bearing nude mice; type: in vivo, BALB/c nude mice; details: nude mouse tumor body, compared to the Control group
Text: The expression of nude mice tumor body cyclin and EMT related proteins in tumor bearing nude mice after intervention with DDP, CA, BDMC, and combined administration was shown in FIG. 29. In the figure, 1 represented the Control group; 2 represented the DDP group; 3 represented the CA group; 4 represented the BDMC group; and 5 represented the CA+BDMC group.

Hey ovarian cancer cell = assay: Tumor bearing nude mouse model (tumor volume, tumor inhibition rate, body weight); type: in vivo, BALB/c nude mice; details: intraperitoneal, 15 days; DDP 3 mg/kg, CA 80 mg/kg, BDMC 5 mg/kg; compared to the Control group, P<0.01
Protocol: Newly housed BALB/c nude mice were placed in an SPF grade feeding room laminar flow rack for adaptive feeding for one week, and the experimental animal status was adjusted. A Hey ovarian cancer cell was cultivated to the logarithmic growth stage, and the original culture medium was discarded. The Hey ovarian cancer cell was washed with PBS buffer, added with 0.1% trypsin digestion for digestion, added with the corresponding culture medium to terminate digestion, centrifuged at 1000 rpm for 3 minutes, and added with PBS buffer to prepare a cell suspension. The cell was counted using a hemocytometer, and the cell concentration was quantified to 5×10^7 cells/mL. After grasping and fixing the nude mouse with the left hand, and the skin at a needle inserting site on the right forelimb axilla of the nude mouse was disinfected with a 75% alcohol cotton ball. A disposable 1 mL syringe was used to inject approximately 100 μL of cell suspension subcutaneously into the posterior axilla of the right forelimb in an oblique stabbing inserting needle mode, so that each nude mouse was injected with approximately 5×10^6 cells. After vaccination, the needle inserting site was gently pressed with a cotton ball to prevent the cell suspension from leaking from a needle hole. The growth status of tumors at the vaccination site of nude mice was observed daily. After about one week, if the tumors at the vaccination site were compacted and appeared light red in color, it could be considered as successful tumor growth. At this time, the nude mice were randomly divided into 5 groups, a Control group intraperitoneally injected with physiological saline for 1 day each time; a DDP group intraperitoneally injected with cisplatin, 3 mg/kg, 3 d/time; a CA group intraperitoneally injected with CA, 80 mg/kg, 1 d/time; a BDMC group intraperitoneally injected with BDMC, 5 mg/kg, 1 d/time; a CA+BDMC group intraperitoneally injected with CA 80 mg/kg+BDMC 5 mg/kg, 1 d/time, 8 animals per group. A tumor length (L) and a […] were measured with a vernier caliper every 3 days to calculate a tumor volume. After 15 days of administration, nude mice were euthanized by dislocation of cervical vertebra, and tumor tissue was dissected. The tumor weight was weighed to calculate the tumor inhibition rate. The tumor tissue was stored in two batches at −80° C. and fixed with 4% paraformaldehyde.

N.N.[Cl][Pt][Cl] [DDP, cisplatin, reference compound]
expression of CDK4 protein (Western Blot) [1]: significantly decreased | tumor inhibition rate (Hey ovarian cancer cell): significantly increased | tumor volume size (Hey ovarian cancer cell): significantly reduced
